# Laboratory results from EP0377642B1, “HERBICIDES FOR WEED CONTROL IN RICE” (E.I. DU PONT DE NEMOURS AND COMPANY, priority 1987, dated 1989).
# Experiments:
# Format in all cases: in vivo
# rice [1] = test: Effects in combination with Thiobencarb and Bensulfuron Methyl on rice growth (Table 22); settings: var. Koshihikari, applied 7 days after transplanting, rated 21 days after application
# Description: (§1) Methyl 2-[[[[(4-methoxy-6-methyl-1,3,5-triazin-2-yl)amino]carbonyl]amino]sulfonyl]benzoate (Compound 1) and mixtures thereof with other compounds were applied as a spray (using a hand sprayer) to rice (either transplanted or direct seeded) in several rice growing areas in Southeast Asia and in the U.S. Tables 1-28 contain the results of these tests and clearly exemplify the utility of this invention. The details of each application are included in the appropriate table. [drawing 2]
# FIMBRISTYLIS MILIACEA = test: Herbicidal efficacy alone and with 2,4-D in Thailand (Table 3); settings: 600 GAI/HA, 6 weeks after application
# Description: as §1
# weeds = test: Greenhouse test of Compound 1 and Compound 2, herbicidal efficacy (Table 26); settings: rated 24 days after treatment; for % CONTROL OR INJURY AT: Alisma triviale; for % CONTROL OR INJURY AP: Alternanthera philoxeroides; for % CONTROL OR INJURY CD: Cyperus difformis; for % CONTROL OR INJURY SR: Sagittaria rigida
# Description: as §1
# [2] = tested on: transplanted rice (var. Nihonbare); test: Crop tolerance of transplanted rice, combinations with Thiobencarb, Dimepiperate, Esprocarb and Dymron (Table 15)
# Description: as §1
# WEED [3] = test: Effects in combination with Bensulfuron Methyl and Thiobencarb or Pretilachlor on weed control (Table 24); settings: scale 0 to 10, treated at 1.0 leaf stage, evaluated four weeks later; for WEED CONTROL RATINGS CD: Cyperus difformis; for WEED CONTROL RATINGS CS: Cyperus serotinus; for WEED CONTROL RATINGS EO: Echinochloa oryzicola; for WEED CONTROL RATINGS BL: Lindernia pyxidaria; for WEED CONTROL RATINGS MV: Monochoria vaginalis; for WEED CONTROL RATINGS SP: Sagittaria pygmaea; for WEED CONTROL RATINGS SJ: Scirpus juncoides
# Description: as §1
# WEED [4] = test: Effects in combination with Bensulfuron Methyl and Thiobencarb or Pretilachlor on weed control (Table 25); settings: scale 0 to 10, treated at 2.0 leaf stage, evaluated four weeks later; for WEED CONTROL RATINGS CD: Cyperus difformis; for WEED CONTROL RATINGS CS: Cyperus serotinus; for WEED CONTROL RATINGS EO: Echinochloa oryzicola; for WEED CONTROL RATINGS BL: Lindernia pyxidaria; for WEED CONTROL RATINGS MV: Monochoria vaginalis; for WEED CONTROL RATINGS SP: Sagittaria pygmaea; for WEED CONTROL RATINGS SJ: Scirpus juncoides
# Description: as §1
# rice [5] = test: Effects in combination with Bensulfuron Methyl and Thiobencarb or Pretilachlor on rice growth (Table 23); settings: var. Koshihikari, applied 7 days after transplanting, rated 21 days after application
# Description: as §1
# [6] = 2100 GAI/HA, 15 days after application
smiles,measurement,setting,value
COC(=O)c1ccccc1CS(=O)(=O)NC(=O)Nc1nc(OC)cc(OC)n1,CROP TOLERANCE DW (Dry weight relative to untreated check),rice [1]; rate 75 g ai/ha,76%
same,CROP TOLERANCE PH (Plant height relative to untreated check),rice [1]; rate 75 g ai/ha,84%
same,CROP TOLERANCE VA (Visual crop injury),rice [1]; rate 75 g ai/ha,3.5%
"CCCCOC(=O)COc1ccc(Cl)cc1Cl [2,4-D (BUTYL ESTER), reference compound]",FIMBRISTYLIS MILIACEA CONTROL,FIMBRISTYLIS MILIACEA; applied 7 DAS,94%
same,FIMBRISTYLIS MILIACEA CONTROL,FIMBRISTYLIS MILIACEA; applied 14 DAS,98%
same,FIMBRISTYLIS MILIACEA CONTROL,FIMBRISTYLIS MILIACEA; applied 21 DAS,60%
same,FIMBRISTYLIS MILIACEA CONTROL,FIMBRISTYLIS MILIACEA; applied 28 DAS,43%
"COC(=O)c1ccccc1S(=O)(=O)NC(=O)Nc1nc(OC)cc(OC)n1 [Compound 2, methyl 2-[[[[(4,6-dimethoxy-2-pyrimidinyl)amino]carbonyl]amino]sulfonyl]benzoate]",% CONTROL OR INJURY AT,weeds; rate 1 g ai/ha,95%
same,% CONTROL OR INJURY AT,weeds; rate 2 g ai/ha,95%
same,% CONTROL OR INJURY AT,weeds; rate 4 g ai/ha,95%
same,% CONTROL OR INJURY AT,weeds; rate 8 g ai/ha,95%
same,% CONTROL OR INJURY AP,weeds; rate 1 g ai/ha,0%
same,% CONTROL OR INJURY AP,weeds; rate 2 g ai/ha,0%
same,% CONTROL OR INJURY AP,weeds; rate 4 g ai/ha,20%
same,% CONTROL OR INJURY AP,weeds; rate 8 g ai/ha,30%
same,% CONTROL OR INJURY CD,weeds; rate 1 g ai/ha,70%
same,% CONTROL OR INJURY CD,weeds; rate 2 g ai/ha,80%
same,% CONTROL OR INJURY CD,weeds; rate 4 g ai/ha,100%
same,% CONTROL OR INJURY CD,weeds; rate 8 g ai/ha,100%
same,% CONTROL OR INJURY SR,weeds; rate 1 g ai/ha,0%
same,% CONTROL OR INJURY SR,weeds; rate 2 g ai/ha,0%
same,% CONTROL OR INJURY SR,weeds; rate 4 g ai/ha,80%
same,% CONTROL OR INJURY SR,weeds; rate 8 g ai/ha,80%
"CC(C)(SC(=O)N1CCCCC1)c1ccccc1 [Dimepiperate, S-1-methyl-1-phenylethylpiperidine-1-carbothioate]","CROP TOLERANCE (Nihonbare) PH, plant height relative to untreated check",[2]; in vivo,102%
same,"CROP TOLERANCE (Nihonbare) VA, visual crop injury",[2]; in vivo,0%
"Cc1ccc(NC(=O)NC(C)(C)c2ccccc2)cc1 [Dymron, 1-(α,α-dimethylbenzyl)-3-p-tolylurea]","CROP TOLERANCE (Nihonbare) DW, dry weight relative to untreated check",[2]; [6],107%
same,"CROP TOLERANCE (Nihonbare) PH, plant height relative to untreated check",[2]; [6],102%
same,"CROP TOLERANCE (Nihonbare) VA, visual crop injury",[2]; [6],0%
"CCN(C(=O)SCc1ccccc1)C(C)C(C)C (centres unmarked) [Esprocarb, S-benzyl-N-ethyl-N-(1,2-dimethyl)-propylthiol carbamate]","CROP TOLERANCE (Nihonbare) DW, dry weight relative to untreated check",[2]; [6],94%
same,"CROP TOLERANCE (Nihonbare) PH, plant height relative to untreated check",[2]; [6],92%
same,"CROP TOLERANCE (Nihonbare) VA, visual crop injury",[2]; [6],0%
CCCOCCN(C(=O)CCl)c1c(CC)cccc1CC [PRETILACHLOR],WEED CONTROL RATINGS CD,WEED [3]; rate 600 g ai/ha,10
same,WEED CONTROL RATINGS CS,WEED [3]; rate 600 g ai/ha,3
same,WEED CONTROL RATINGS EO,WEED [3]; rate 600 g ai/ha,10
same,WEED CONTROL RATINGS BL,WEED [3]; rate 600 g ai/ha,10
same,WEED CONTROL RATINGS MV,WEED [3]; rate 600 g ai/ha,5
same,WEED CONTROL RATINGS SP,WEED [3]; rate 600 g ai/ha,3
same,WEED CONTROL RATINGS SJ,WEED [3]; rate 600 g ai/ha,5
same,WEED CONTROL RATINGS CD,WEED [4]; rate 600 g ai/ha,10
same,WEED CONTROL RATINGS CS,WEED [4]; rate 600 g ai/ha,3
same,WEED CONTROL RATINGS EO,WEED [4]; rate 600 g ai/ha,7
same,WEED CONTROL RATINGS BL,WEED [4]; rate 600 g ai/ha,7
same,WEED CONTROL RATINGS MV,WEED [4]; rate 600 g ai/ha,3
same,WEED CONTROL RATINGS SP,WEED [4]; rate 600 g ai/ha,6
same,WEED CONTROL RATINGS SJ,WEED [4]; rate 600 g ai/ha,2
CCCOCCN(C(=O)CCl)c1c(CC)cccc1CC [Pretilachlor],CROP TOLERANCE DW (Dry weight relative to untreated check),rice [5]; rate 600 g ai/ha,71%
same,CROP TOLERANCE PH (Plant height relative to untreated check),rice [5]; rate 600 g ai/ha,87%
same,CROP TOLERANCE VA (Visual crop injury),rice [5]; rate 600 g ai/ha,3%
"CCN(CC)C(=O)SCc1ccc(Cl)cc1 [Thiobencarb, S-[(4-chlorophenyl)methyl]diethylcarbamothioate, reference compound]","CROP TOLERANCE (Nihonbare) DW, dry weight relative to untreated check",[2]; [6],112%
same,"CROP TOLERANCE (Nihonbare) PH, plant height relative to untreated check",[2]; [6],102%
same,"CROP TOLERANCE (Nihonbare) VA, visual crop injury",[2]; [6],0%
same,CROP TOLERANCE DW (Dry weight relative to untreated check),rice [1]; rate 2100 g ai/ha,99%
same,CROP TOLERANCE PH (Plant height relative to untreated check),rice [1]; rate 2100 g ai/ha,99%
same,CROP TOLERANCE VA (Visual crop injury),rice [1]; rate 2100 g ai/ha,0%
same,CROP TOLERANCE DW (Dry weight relative to untreated check),rice [5]; rate 2100 g ai/ha,81%
same,CROP TOLERANCE PH (Plant height relative to untreated check),rice [5]; rate 2100 g ai/ha,93%
same,CROP TOLERANCE VA (Visual crop injury),rice [5]; rate 2100 g ai/ha,2%
same,WEED CONTROL RATINGS CD,WEED [3]; rate 2100 g ai/ha,10
same,WEED CONTROL RATINGS CS,WEED [3]; rate 2100 g ai/ha,9
same,WEED CONTROL RATINGS EO,WEED [3]; rate 2100 g ai/ha,10
same,WEED CONTROL RATINGS BL,WEED [3]; rate 2100 g ai/ha,9
same,WEED CONTROL RATINGS MV,WEED [3]; rate 2100 g ai/ha,10
same,WEED CONTROL RATINGS SP,WEED [3]; rate 2100 g ai/ha,0
same,WEED CONTROL RATINGS SJ,WEED [3]; rate 2100 g ai/ha,7
same,WEED CONTROL RATINGS CD,WEED [4]; rate 2100 g ai/ha,10
same,WEED CONTROL RATINGS CS,WEED [4]; rate 2100 g ai/ha,2
same,WEED CONTROL RATINGS EO,WEED [4]; rate 2100 g ai/ha,6
same,WEED CONTROL RATINGS BL,WEED [4]; rate 2100 g ai/ha,9.5
same,WEED CONTROL RATINGS MV,WEED [4]; rate 2100 g ai/ha,10
same,WEED CONTROL RATINGS SP,WEED [4]; rate 2100 g ai/ha,0
same,WEED CONTROL RATINGS SJ,WEED [4]; rate 2100 g ai/ha,8.5
